The source of these data is ChEMBL document CHEMBL3244278, “Cerebrovasodilatation through selective inhibition of the enzyme carbonic anhydrase. 1. Substituted benzenedisulfonamides” (J Med Chem, 1978).

Calls of active or inactive are those of the source. No cut-off for these calls is given here.

In data set [1] the test system is Mus musculus. Nature of the data set: Anticonvulsant activity in mouse assessed as protection against electroshock-induced maximal seizure effect up to 100 mg/kg, po administered via gavage 2 hrs prior to electroshock stimulation. It is filed as functional, organism-based. The arrangement: dose 100 mg/kg.
Data set [2] deals with Mus musculus. The data set is described as follows: Anticonvulsant activity in po dosed mouse assessed as protection against electroshock-induced maximal seizure effect administered via gavage 2 hrs prior to electroshock stimulation. It is filed as functional. As to conditions: for ED50: Mus musculus, po.
A short description of data set [3]: Dissociation constant, pKa of the compound. It is filed as physicochemical.
The nature of data set [4]: Protein binding in plasma (unknown origin). It is filed as ADME, cell-free. As to conditions: unidentified, read-out: PPB (converted).
Data set [5] has as its system Rattus norvegicus. The data set is described as follows: Induction of diuretic activity in po dosed rat assessed as increase in urine output after 4 hrs. The data set is classed as organism-based.
Data set [6] can be described thus: Octanol-water partition coefficient, log P of the compound. The data set is classed as physicochemical.
Data set [7] can be described thus: Elimination half life in iv dosed dog plasma. The data set is classed as ADME, organism-based, Canis lupus familiaris. As to conditions: read-out: beta t1/2 (converted).

Turning to `COC1CCN(S(=O)(=O)c2cc(C)c(S(N)(=O)=O)c(C)c2)CC1`, the result in data set [1] was inactive. Take `NS(=O)(=O)c1ccc(S(=O)(=O)N2CCC(O)(c3ccccn3)CC2)cc1`: the ED50 (commonly the dose at which the effect has come halfway, by size or by number of responders) in data set [2] was 40 mg/kg.

For the compound `NS(=O)(=O)c1nnc(NS(=O)(=O)c2ccccc2)s1` [BENZOLAMIDE], the pKa (as a rule, the pH at which an ionisable group is half protonated) in data set [3] was 3.2. Moreover, in data set [4], the fraction unbound was 0.08. Take `NS(=O)(=O)c1ccc(S(=O)(=O)N2CCC3(CC2)NC(=O)NC3=O)cc1Cl`: the outcome in data set [1] was inactive. With `COC1CCN(S(=O)(=O)c2ccc(S(N)(=O)=O)c(C(F)(F)F)c2)CC1`, in data set [1], the result was inactive.

Regarding `COC1CCN(S(=O)(=O)c2cc(Cl)c(S(N)(=O)=O)cc2C)CC1`, in data set [1], the outcome was inactive.

With `COC1CCN(S(=O)(=O)c2c(Cl)cc(S(N)(=O)=O)cc2Cl)CC1`, the outcome in data set [1] was inactive. Still for that read-out and setting: under `CC(=O)C1CCN(S(=O)(=O)c2ccc(S(N)(=O)=O)cc2)CC1` stands “inactive”. In the case of `CC(=O)Nc1nnc(S(N)(=O)=O)s1` [ACETAZOLAMIDE], the Activity in data set [2] was found to be 36 mg/kg. In addition, in data set [5], the 50% effective dose (ED50) turned out to be 5 mg/kg.

On to `COC1CCN(S(=O)(=O)c2ccc(S(N)(=O)=O)c(Cl)c2)CC1` [UK-12130], for which the logP (commonly a log measure of how a compound divides between an organic and an aqueous phase) in data set [6] stood at 0.62. Moreover, in data set [7], the half-life was 3 h. For `CN1CN(c2ccccc2)C2(CCN(S(=O)(=O)c3ccc(S(N)(=O)=O)cc3)CC2)C1=O`, the ED50 in data set [2] was over 40 mg/kg. With `NS(=O)(=O)c1ccc(S(=O)(=O)N2CCOCC2)cc1C(F)(F)F`, the outcome in data set [1] was inactive.

`NS(=O)(=O)c1cc(Cl)c(S(=O)(=O)N2CCOCC2)c(Cl)c1`: the result in data set [1] was inactive. Still for that read-out and setting: under `COC1(C)CCN(S(=O)(=O)c2ccc(S(N)(=O)=O)cc2)CC1` stands “inactive”.
